Holding throughout (experiment): chromogenic substrate hydrolysis, […] nm
Assay type in all cases: biochemical

One assay concerns the target T1, thrombin (Homo sapiens, UniProt P00734).
T1 construct: gene F2
The following applies: […] enzyme, […] Tos-Gly-Pro-Arg-pNA, pH […], up to […] DMSO.

Assay [1] has as its target T2, factor Xa (FXa) (Homo sapiens, UniProt P00742).
T2 construct: gene F10

Assay [2] deals with T3, factor XIa (FXIa) (Homo sapiens, UniProt P03951).
T3 construct: gene F11

Assay [3] has as its target T3, factor XIa (FXIa). Particulars: […] enzyme, […] S2366, pH […], up to […] DMSO.
Assay [4] addresses T2, factor Xa (FXa). Particulars: […] enzyme, […] S2765, pH […], up to […] DMSO.

Where two headings read alike, the source gives them in different places.

T3 sequence (P03951 19-387): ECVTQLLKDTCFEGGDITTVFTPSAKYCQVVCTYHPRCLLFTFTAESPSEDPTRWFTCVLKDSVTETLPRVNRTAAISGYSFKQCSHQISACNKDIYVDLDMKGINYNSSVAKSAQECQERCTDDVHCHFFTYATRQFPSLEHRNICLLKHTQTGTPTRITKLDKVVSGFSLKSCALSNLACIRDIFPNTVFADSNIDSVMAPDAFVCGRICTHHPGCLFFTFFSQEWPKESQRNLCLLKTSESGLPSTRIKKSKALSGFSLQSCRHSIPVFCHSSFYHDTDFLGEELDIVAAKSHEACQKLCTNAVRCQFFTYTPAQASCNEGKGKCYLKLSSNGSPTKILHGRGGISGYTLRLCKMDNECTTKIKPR
T3 sequence (P03951 388-625): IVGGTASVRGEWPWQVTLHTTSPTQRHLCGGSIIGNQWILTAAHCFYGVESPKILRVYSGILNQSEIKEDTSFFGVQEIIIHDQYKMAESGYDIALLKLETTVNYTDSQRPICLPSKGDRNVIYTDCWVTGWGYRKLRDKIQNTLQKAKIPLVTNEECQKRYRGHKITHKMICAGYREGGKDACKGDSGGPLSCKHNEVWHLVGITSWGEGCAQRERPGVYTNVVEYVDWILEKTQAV
T2 sequence (P00742 41-179): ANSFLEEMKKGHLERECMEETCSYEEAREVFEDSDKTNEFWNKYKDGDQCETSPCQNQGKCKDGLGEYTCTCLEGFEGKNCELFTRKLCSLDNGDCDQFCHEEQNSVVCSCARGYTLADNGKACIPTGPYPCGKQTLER
T2 sequence (P00742 235-488): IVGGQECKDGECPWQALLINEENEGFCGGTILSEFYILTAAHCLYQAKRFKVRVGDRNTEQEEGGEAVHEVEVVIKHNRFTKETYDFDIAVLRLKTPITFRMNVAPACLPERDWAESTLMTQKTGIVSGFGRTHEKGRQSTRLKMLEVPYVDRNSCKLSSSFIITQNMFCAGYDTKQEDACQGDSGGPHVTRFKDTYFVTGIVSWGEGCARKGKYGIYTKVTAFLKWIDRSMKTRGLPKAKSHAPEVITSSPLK

Broadly, the IC50 is the concentration that inhibits the measured activity by half. `COC(=O)C=C1SC(NN=C2C(=O)N3c4c2cc(I)cc4C(C)CC3(C)C)=NC1=O` (mixture of isomers) [3e, Methyl 2-(2-(2-(8-iodo-4,4,6-trimethyl-2-oxo-5,6-dihydro-4H-pyrrolo[3,2,1-ij]quinolin-1(2H)-ylidene)hydrazineyl)-4-oxothiazol-5(4H)-ylidene)acetate]: the “Percent Inhibition of Thrombin at 30 μM” value at thrombin is recorded as 96%. Moreover, the IC50 is 4.23 ± 0.31 µM against factor Xa (FXa) [1] ([…] enzyme, […] S2765, pH […], up to […] DMSO) and 8.03 ± 0.68 µM on factor XIa (FXIa) [2] ([…] enzyme, […] S2366, pH […], up to […] DMSO).
Regarding `COC(=O)C=C1SC(NN=C2C(=O)N3c4c2cc(C)cc4C(C)(c2ccc(Cl)cc2)CC3(C)C)=NC1=O` (mixture of isomers) [3j, Methyl 2-(2-(2-(6-(4-chlorophenyl)-4,4,6,8-tetramethyl-2-oxo-5,6-dihydro-4H-pyrrolo[3,2,1-ij]quinolin-1(2H)-ylidene)hydrazineyl)-4-oxothiazol-5(4H)-ylidene)acetate], at factor XIa (FXIa) [3], the “Percent Inhibition at 30 μM / XIa” value turned out to be 83%.
As for `COC(=O)/C=C1\SC(N/N=C2\C(=O)N3c4c2cc(OC)cc4C(C)CC3(C)C)=NC1=O` (stereo not shown) [3b, Methyl (Z)-2-(2-(2-((Z)-8-methoxy-4,4,6-trimethyl-2-oxo-5,6-dihydro-4H-pyrrolo[3,2,1-ij]quinolin-1(2H)-ylidene)hydrazineyl)-4-oxothiazol-5(4H)-ylidene)acetate], the IC50 at factor Xa (FXa) [1] was 5.76 ± 1.08 µM; against factor XIa (FXIa) [2], 8.1 ± 0.2 µM.
Taken in the same sequence, the figures for `COC(=O)/C=C1\SC(N/N=C2\C(=O)N3c4c2cc(Cl)cc4C(C)CC3(C)C)=NC1=O` (stereo not shown) [3c, Methyl (Z)-2-(2-(2-((Z)-8-chloro-4,4,6-trimethyl-2-oxo-5,6-dihydro-4H-pyrrolo[3,2,1-ij]quinolin-1(2H)-ylidene)hydrazineyl)-4-oxothiazol-5(4H)-ylidene)acetate] were 2.84 ± 0.04 µM and 12.2 ± 0.2 µM.
Turning to `COC(=O)/C=C1\SC(N/N=C2\C(=O)N3c4c2cc(Br)cc4C(C)CC3(C)C)=NC1=O` (stereo not shown) [3d, Methyl (Z)-2-(2-(2-((Z)-8-bromo-4,4,6-trimethyl-2-oxo-5,6-dihydro-4H-pyrrolo[3,2,1-ij]quinolin-1(2H)-ylidene)hydrazineyl)-4-oxothiazol-5(4H)-ylidene)acetate], the “Percent Inhibition at 30 μM / XIa” value at factor XIa (FXIa) [3] was 96%.
Turning to `COC(=O)/C=C1\SC(N/N=C2\C(=O)N3c4c(cc(C)c(C)c42)C(C)CC3(C)C)=NC1=O` (stereo not shown) [3f, Methyl (Z)-2-(4-oxo-2-(2-((Z)-4,4,6,8,9-pentamethyl-2-oxo-5,6-dihydro-4H-pyrrolo[3,2,1-ij]quinolin-1(2H)-ylidene)hydrazineyl)thiazol-5(4H)-ylidene)acetate], the IC50 against factor Xa (FXa) [1] came to 4.02 ± 0.6 µM; against factor XIa (FXIa) [2], 7.97 ± 0.63 µM.
In the case of `COC(=O)/C=C1\SC(N/N=C2\C(=O)N3c4c2cccc4C(C)(c2ccc(Cl)cc2)CC3(C)C)=NC1=O` (stereo not shown) [3i, Methyl (Z)-2-(2-(2-((Z)-6-(4-chlorophenyl)-4,4,6-trimethyl-2-oxo-5,6-dihydro-4H-pyrrolo[3,2,1-ij]quinolin-1(2H)-ylidene)hydrazineyl)-4-oxothiazol-5(4H)-ylidene)acetate], the “Percent Inhibition at 30 μM / Xa” value on factor Xa (FXa) [4] was 87%.
As for `COC(=O)/C=C1\SC(N/N=C2\C(=O)N3c4c2cc(Cl)cc4C(C)(c2ccc(Cl)cc2)CC3(C)C)=NC1=O` (stereo not shown) [3k, Methyl (Z)-2-(2-(2-((Z)-8-chloro-6-(4-chlorophenyl)-4,4,6-trimethyl-2-oxo-5,6-dihydro-4H-pyrrolo[3,2,1-ij]quinolin-1(2H)-ylidene)hydrazineyl)-4-oxothiazol-5(4H)-ylidene)acetate], the IC50 amounted to 1.17 ± 0.26 µM on factor Xa (FXa) [1] and 4.59 ± 0.54 µM against factor XIa (FXIa) [2].
`COC(=O)/C=C1\SC(N/N=C2\C(=O)N3c4c2cc(Br)cc4C(C)(c2ccc(Cl)cc2)CC3(C)C)=NC1=O` (stereo not shown) [3l, Methyl (Z)-2-(2-(2-((Z)-8-bromo-6-(4-chlorophenyl)-4,4,6-trimethyl-2-oxo-5,6-dihydro-4H-pyrrolo[3,2,1-ij]quinolin-1(2H)-ylidene)hydrazineyl)-4-oxothiazol-5(4H)-ylidene)acetate]: the values for the IC50 against factor Xa (FXa) [1] and against factor XIa (FXIa) [2] were 1.74 ± 0.21 µM and 3.61 ± 1.7 µM, respectively.
The corresponding values for `COC(=O)/C=C1\SC(N/N=C2\C(=O)N3c4c2cccc4C(C)(c2ccccc2)CC3(C)C)=NC1=O` (stereo not shown) [3n, Methyl (Z)-2-(4-oxo-2-(2-((Z)-4,4,6-trimethyl-2-oxo-6-phenyl-5,6-dihydro-4H-pyrrolo[3,2,1-ij]quinolin-1(2H)-ylidene)hydrazineyl)thiazol-5(4H)-ylidene)acetate] are 1.86 ± 0.07 µM and 11.5 ± 0.98 µM.
The corresponding values for `COC(=O)/C=C1\SC(N/N=C2\C(=O)N3c4c2cc(Cl)cc4C(C)(c2ccccc2)CC3(C)C)=NC1=O` (stereo not shown) [3o, Methyl (Z)-2-(2-(2-((Z)-8-chloro-4,4,6-trimethyl-2-oxo-6-phenyl-5,6-dihydro-4H-pyrrolo[3,2,1-ij]quinolin-1(2H)-ylidene)hydrazineyl)-4-oxothiazol-5(4H)-ylidene)acetate] are 1.34 ± 0.16 µM and 7.21 ± 0.22 µM.
Taken in the same sequence, the figures for `COC(=O)/C=C1\SC(N/N=C2\C(=O)N3c4c2cc(Br)cc4C(C)(c2ccccc2)CC3(C)C)=NC1=O` (stereo not shown) [3p, Methyl (Z)-2-(2-(2-((Z)-8-bromo-4,4,6-trimethyl-2-oxo-6-phenyl-5,6-dihydro-4H-pyrrolo[3,2,1-ij]quinolin-1(2H)-ylidene)hydrazineyl)-4-oxothiazol-5(4H)-ylidene)acetate] were 1.83 ± 0.05 µM and 3.87 ± 0.33 µM.

Values taken from publication PMC10818416, “Design, Synthesis, and Evaluation of New Hybrid Derivatives of 5,6-Dihydro-4H-pyrrolo[3,2,1-ij]quinolin-2(1H)-one as Potential Dual Inhibitors of Blood Coagulation Factors Xa and XIa” (Molecules, 2024).
